The text below walks through data of ChEMBL document CHEMBL1770127, “2-(2-Aminothiazol-4-yl)pyrrolidine-based tartrate diamides as potent, selective and orally bioavailable TACE inhibitors” (Bioorg Med Chem Lett, 2011).

Molecules are shown by their SMILES. pIC50, pKi: −log10 of the molar value. A value given as a limit tells only on which side of the number the result lay.

Series [1] deals with T1, Disintegrin and metalloproteinase domain-containing protein 17 (Homo sapiens, UniProt P78536). In words: Inhibition of TACE.
T1 sequence (P78536 whole entry, the tested form may be a part): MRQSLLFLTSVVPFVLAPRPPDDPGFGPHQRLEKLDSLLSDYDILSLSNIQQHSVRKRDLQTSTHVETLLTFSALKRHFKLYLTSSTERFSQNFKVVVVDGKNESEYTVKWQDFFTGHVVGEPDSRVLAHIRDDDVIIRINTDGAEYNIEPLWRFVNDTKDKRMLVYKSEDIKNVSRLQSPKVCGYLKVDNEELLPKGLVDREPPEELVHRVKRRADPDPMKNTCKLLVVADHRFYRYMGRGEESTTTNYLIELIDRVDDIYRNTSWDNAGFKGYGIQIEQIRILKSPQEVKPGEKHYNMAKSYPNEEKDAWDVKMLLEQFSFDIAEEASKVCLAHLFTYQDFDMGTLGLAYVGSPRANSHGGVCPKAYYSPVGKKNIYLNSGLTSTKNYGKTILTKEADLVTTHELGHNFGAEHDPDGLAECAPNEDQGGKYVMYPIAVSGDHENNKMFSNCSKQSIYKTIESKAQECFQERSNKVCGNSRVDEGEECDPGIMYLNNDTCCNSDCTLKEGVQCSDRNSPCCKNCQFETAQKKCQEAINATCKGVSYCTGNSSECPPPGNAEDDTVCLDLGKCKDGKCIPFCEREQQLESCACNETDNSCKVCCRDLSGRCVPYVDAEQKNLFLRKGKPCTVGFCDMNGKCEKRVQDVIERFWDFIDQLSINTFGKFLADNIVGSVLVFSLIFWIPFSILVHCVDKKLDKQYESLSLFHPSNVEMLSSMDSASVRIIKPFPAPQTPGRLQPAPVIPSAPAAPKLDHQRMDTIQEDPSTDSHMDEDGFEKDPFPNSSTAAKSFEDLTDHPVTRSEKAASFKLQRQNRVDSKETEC
Series [2] can be described thus: AUC in Sprague-Dawley rat at 10 mg/kg, po measured within 6 hrs after post-dosing by LC/MS/MS analysis. Format: ADME, organism-based. Also on record: time < 6 hr, dose 10 mg/kg, route oral. To be noted: plasma.
Series [3] is described as follows: Plasma concentration in Sprague-Dawley rat at 10 mg/kg, po measured after 6 hrs by LC/MS/MS analysis. In kind it is ADME, organism-based. Also noted: dose 10 mg/kg, route oral.
For series [4], the target named is T1, Disintegrin and metalloproteinase domain-containing protein 17. In words: Inhibition of TACE by cell based assay.
Series [5] deals with T2, Interstitial collagenase (Homo sapiens, UniProt P03956).
T2 sequence (P03956 whole entry): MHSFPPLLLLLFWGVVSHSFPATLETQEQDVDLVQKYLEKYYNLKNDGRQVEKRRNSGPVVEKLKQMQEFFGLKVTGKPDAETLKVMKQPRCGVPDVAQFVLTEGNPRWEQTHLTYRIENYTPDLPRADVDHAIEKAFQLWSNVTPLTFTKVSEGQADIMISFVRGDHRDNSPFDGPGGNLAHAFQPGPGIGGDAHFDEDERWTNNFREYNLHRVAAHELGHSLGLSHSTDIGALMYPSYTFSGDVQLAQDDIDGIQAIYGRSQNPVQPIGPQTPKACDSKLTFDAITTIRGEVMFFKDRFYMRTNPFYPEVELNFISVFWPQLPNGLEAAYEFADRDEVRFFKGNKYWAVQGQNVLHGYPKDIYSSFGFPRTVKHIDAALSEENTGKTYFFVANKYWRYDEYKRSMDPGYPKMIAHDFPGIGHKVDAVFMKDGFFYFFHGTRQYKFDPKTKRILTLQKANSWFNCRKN
In words: Inhibition of MMP1.

In series [6] the target is 72 kDa type IV collagenase (Homo sapiens, UniProt P08253). In words: Inhibition of MMP2.
Sequence of 72 kDa type IV collagenase (P08253 whole entry): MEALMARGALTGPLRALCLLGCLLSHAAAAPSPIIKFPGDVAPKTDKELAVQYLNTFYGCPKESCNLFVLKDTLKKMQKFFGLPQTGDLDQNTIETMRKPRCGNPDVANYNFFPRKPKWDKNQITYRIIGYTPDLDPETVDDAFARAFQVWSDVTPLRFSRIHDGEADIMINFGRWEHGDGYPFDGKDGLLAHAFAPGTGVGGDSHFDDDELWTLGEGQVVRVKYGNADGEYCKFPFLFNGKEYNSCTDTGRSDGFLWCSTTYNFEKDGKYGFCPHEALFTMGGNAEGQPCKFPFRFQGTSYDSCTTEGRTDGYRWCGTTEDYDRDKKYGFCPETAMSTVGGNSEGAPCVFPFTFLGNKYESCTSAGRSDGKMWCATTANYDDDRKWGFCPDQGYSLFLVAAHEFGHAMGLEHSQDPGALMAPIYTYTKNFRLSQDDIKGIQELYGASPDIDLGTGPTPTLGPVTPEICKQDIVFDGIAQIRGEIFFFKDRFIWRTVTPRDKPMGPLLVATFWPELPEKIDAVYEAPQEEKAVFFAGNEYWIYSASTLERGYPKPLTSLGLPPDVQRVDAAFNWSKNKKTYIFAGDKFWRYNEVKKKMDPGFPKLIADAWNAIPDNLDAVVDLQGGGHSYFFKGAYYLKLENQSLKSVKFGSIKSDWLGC
Series [7] deals with Stromelysin-1 (Homo sapiens, UniProt P08254). In words: Inhibition of MMP3.
Sequence of Stromelysin-1 (P08254 whole entry): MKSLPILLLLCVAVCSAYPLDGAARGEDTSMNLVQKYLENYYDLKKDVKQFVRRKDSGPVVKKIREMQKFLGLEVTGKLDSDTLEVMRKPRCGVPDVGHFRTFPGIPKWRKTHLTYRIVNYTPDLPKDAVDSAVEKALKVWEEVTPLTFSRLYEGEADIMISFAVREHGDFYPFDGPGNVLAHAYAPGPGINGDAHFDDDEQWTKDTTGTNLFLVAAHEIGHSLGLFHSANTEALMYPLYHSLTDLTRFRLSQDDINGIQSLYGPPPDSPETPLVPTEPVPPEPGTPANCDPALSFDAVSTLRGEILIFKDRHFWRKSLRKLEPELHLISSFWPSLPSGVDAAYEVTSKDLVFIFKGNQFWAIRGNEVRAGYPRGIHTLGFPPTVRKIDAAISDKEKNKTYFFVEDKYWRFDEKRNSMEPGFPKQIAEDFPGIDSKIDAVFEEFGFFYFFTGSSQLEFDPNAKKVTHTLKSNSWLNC
The target in series [8] is T3, Matrilysin (Homo sapiens, UniProt P09237).
T3 sequence (P09237 whole entry): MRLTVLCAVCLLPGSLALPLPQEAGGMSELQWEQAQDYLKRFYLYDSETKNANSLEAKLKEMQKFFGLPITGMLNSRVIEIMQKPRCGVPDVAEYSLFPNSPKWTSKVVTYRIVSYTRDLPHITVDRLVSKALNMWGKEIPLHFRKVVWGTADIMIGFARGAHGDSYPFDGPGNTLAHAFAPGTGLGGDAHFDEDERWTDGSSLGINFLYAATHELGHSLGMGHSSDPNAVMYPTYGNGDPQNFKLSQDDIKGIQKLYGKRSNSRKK
In words: Inhibition of MMP7.

Series [9] concerns the target Matrix metalloproteinase-9 (Homo sapiens, UniProt P14780). In words: Inhibition of MMP9.
For series [10], the target named is Collagenase 3 (Homo sapiens, UniProt P45452). In words: Inhibition of MMP13.
Series [11] has as its target Matrix metalloproteinase-14 (Homo sapiens, UniProt P50281). Kind of series: Inhibition of MMP14.
The target in series [12] is T4, Disintegrin and metalloproteinase domain-containing protein 10 (Homo sapiens, UniProt O14672).
T4 sequence (O14672 whole entry): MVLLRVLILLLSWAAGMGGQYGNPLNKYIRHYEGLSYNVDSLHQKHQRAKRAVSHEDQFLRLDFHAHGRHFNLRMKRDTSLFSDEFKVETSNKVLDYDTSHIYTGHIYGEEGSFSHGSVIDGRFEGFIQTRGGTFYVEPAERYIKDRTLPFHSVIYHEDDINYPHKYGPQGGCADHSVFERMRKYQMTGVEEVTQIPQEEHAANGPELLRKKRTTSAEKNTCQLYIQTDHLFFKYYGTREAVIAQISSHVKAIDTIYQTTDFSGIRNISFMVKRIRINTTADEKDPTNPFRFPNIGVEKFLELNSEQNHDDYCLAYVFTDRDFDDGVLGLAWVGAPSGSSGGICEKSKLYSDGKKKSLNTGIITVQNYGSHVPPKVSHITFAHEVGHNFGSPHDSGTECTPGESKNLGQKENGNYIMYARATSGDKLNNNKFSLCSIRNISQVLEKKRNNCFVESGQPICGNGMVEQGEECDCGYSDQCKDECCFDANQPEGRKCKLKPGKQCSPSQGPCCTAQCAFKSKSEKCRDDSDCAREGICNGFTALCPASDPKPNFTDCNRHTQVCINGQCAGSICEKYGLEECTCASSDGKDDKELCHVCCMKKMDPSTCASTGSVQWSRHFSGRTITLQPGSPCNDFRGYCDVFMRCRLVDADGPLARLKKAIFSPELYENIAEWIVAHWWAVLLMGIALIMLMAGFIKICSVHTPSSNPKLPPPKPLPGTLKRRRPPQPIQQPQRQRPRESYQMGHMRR
Kind of series: Inhibition of ADAM10.

Usually pKi stands for the negative decadic logarithm of the Ki, by convention in mol/L. In general, AUC refers to the area under the concentration-time curve, a measure of exposure. Lower therefore signals low exposure. One may read the pIC50 as the negative decadic logarithm of the IC50, by convention in mol/L. Read a high pIC50 as a small IC50.

Sequence of Matrix metalloproteinase-9 (P14780 whole entry): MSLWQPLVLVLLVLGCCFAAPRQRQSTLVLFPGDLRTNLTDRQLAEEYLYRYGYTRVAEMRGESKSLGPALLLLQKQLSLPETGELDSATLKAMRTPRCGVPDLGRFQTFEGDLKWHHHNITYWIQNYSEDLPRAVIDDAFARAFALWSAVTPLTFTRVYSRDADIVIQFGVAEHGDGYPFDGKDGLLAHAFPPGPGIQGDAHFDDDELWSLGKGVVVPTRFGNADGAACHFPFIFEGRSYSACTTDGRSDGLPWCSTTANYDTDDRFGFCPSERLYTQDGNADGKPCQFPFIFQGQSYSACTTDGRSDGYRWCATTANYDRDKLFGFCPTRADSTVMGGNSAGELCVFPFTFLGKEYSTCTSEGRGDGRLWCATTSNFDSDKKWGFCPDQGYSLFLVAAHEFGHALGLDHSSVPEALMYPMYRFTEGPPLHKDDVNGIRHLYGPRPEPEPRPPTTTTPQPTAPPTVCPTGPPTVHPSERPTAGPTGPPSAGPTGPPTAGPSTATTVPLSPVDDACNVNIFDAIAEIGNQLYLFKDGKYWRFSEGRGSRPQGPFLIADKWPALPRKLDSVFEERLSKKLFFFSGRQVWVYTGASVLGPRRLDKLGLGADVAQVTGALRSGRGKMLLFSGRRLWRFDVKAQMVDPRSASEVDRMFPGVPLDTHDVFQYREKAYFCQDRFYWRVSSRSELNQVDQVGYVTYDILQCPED

Regarding `C[C@@H](NC(=O)[C@H](O)[C@@H](O)C(=O)N1CCC[C@@H]1c1csc(NC2CC2)n1)c1ccc(-n2cccn2)cc1`, the pKi in series [1] was 8.30; in [5], less than 4.40; in series [6], 4.69; in series [7], less than 4.40; in series [8] it was 4.74; in series [9], less than 4.40. Besides, the results for the pKi in series [10], in series [11] and in [12] were less than 4.40, less than 4.40 and 5.87, respectively. The AUC at 6 h in series [2] stood at 134 µM·h. In series [3], this compound registered a concentration at 6 h of 17.6 µM. For the same compound, in [4], the pIC50 was 5.52.

In the case of `CNc1nc([C@H]2c3ccccc3CN2C(=O)[C@H](O)[C@@H](O)C(=O)N[C@H](C)c2ccc(-n3cccn3)cc2)cs1`, the pKi in series [1] is 9.00; in series [5], less than 4.40; in series [6], less than 4.40; in series [7] it was less than 4.40; in series [8] it was 4.87; in series [9], 5.00. Besides, the results for the pKi in [10], in series [11] and in series [12] were 4.85, 4.79 and 6.92, respectively. In [2], this compound came in with an AUC at 6 h of 1.13 µM·h. Further, in [4], the negative-log IC50 (pIC50) is 6.38.
